# In ChEMBL document CHEMBL1122447, “2-Acetylpyridine thiosemicarbazones. 5. 1-[1-(2-Pyridyl)ethyl]-3-thiosemicarbazides as potential antimalarial agents” (1983):
# Assays:
# Plasmodium berghei [1] = test: Increased mean survival time in drug-sensitive Plasmodium berghei infected mice (Mus musculus) at 160 mg/kg; cured 4 of 5; type: functional, organism-based; parameters: dose 160 mg/kg
# Plasmodium berghei [2] = test: Increased mean survival time in drug-sensitive Plasmodium berghei infected mice (Mus musculus) at 40 mg/kg; cured 1 of 5; type: functional, organism-based; parameters: dose 40 mg/kg
# Plasmodium berghei [3] = test: Antimalarial activity against Plasmodium berghei infected mice (Mus musculus) at 640 mg/kg; toxic in 5 of 5; type: functional, organism-based; parameters: dose 640 mg/kg
# Plasmodium berghei [4] = test: Increased mean survival time in drug-sensitive Plasmodium berghei in mice (Mus musculus) at 80 mg/kg dose; type: functional
# Plasmodium berghei [5] = test: Increased mean survival time in drug-sensitive Plasmodium berghei infected mice (Mus musculus) at 320 mg/kg; toxic in 4 of 5; type: functional, organism-based; parameters: dose 320 mg/kg
# Plasmodium berghei [6] = test: Increased mean survival time in drug-sensitive Plasmodium berghei infected mice (Mus musculus) at 40 mg/kg dose; type: functional
# Plasmodium berghei [7] = test: Increased mean survival time in drug-sensitive Plasmodium berghei infected mice (Mus musculus) at 640 mg/kg dose; type: functional
# Plasmodium berghei [8] = test: Increased mean survival time in drug-sensitive Plasmodium berghei infected mice (Mus musculus) at 160 mg/kg; toxic in 1 of 5; type: functional, organism-based; parameters: dose 160 mg/kg
# Plasmodium berghei [9] = test: Increased mean survival time in drug-sensitive Plasmodium berghei infected mice (Mus musculus) at 20 mg/kg dose; type: functional
# Plasmodium berghei [10] = test: Increased mean survival time in drug-sensitive Plasmodium berghei infected mice (Mus musculus) at 320 mg/kg; cured 2 of 5; type: functional, organism-based; parameters: dose 320 mg/kg
# Plasmodium berghei [11] = test: Increased mean survival time in drug-sensitive Plasmodium berghei infected mice (Mus musculus) at 640 mg/kg; cured 2 of 5; type: functional, organism-based; parameters: dose 640 mg/kg
# Plasmodium berghei [12] = test: Increase in mean survival time in drug-sensitive Plasmodium berghei infected mice (Mus musculus) at 160 mg/kg dose; type: functional
# Plasmodium berghei [13] = test: Increased mean survival time in drug-sensitive Plasmodium berghei infected mice (Mus musculus) at 640 mg/kg; toxic in 5 of 5; type: functional, organism-based; parameters: dose 640 mg/kg
# Plasmodium berghei [14] = test: Increased mean survival time in drug-sensitive Plasmodium berghei infected mice (Mus musculus) at 160 mg/kg; toxic in 5 of 5; type: functional, organism-based; parameters: dose 160 mg/kg
# Plasmodium berghei [15] = test: Antimalarial activity against Plasmodium berghei infected mice (Mus musculus) at 320 mg/kg; toxic in 5 of 5; type: functional, organism-based; parameters: dose 320 mg/kg
# Plasmodium berghei [16] = test: Antimalarial activity as increased MST in Plasmodium berghei infected mice (Mus musculus) at 20 mg/kg; type: functional
# Plasmodium berghei [17] = test: Antimalarial activity as increased MST in Plasmodium berghei infected mice (Mus musculus) at 40 mg/kg; Toxic in 1 of 5; type: functional
# Plasmodium berghei [18] = test: Increased mean survival time in drug-sensitive Plasmodium berghei infected mice (Mus musculus) at 5 mg/kg; cured 2 of 5; type: functional
# Plasmodium berghei [19] = test: Increased mean survival time in drug-sensitive Plasmodium berghei infected mice (Mus musculus) at 160 mg/kg; cured 1 of 5; type: functional, organism-based; parameters: dose 160 mg/kg
# Plasmodium berghei [20] = test: Antimalarial activity against Plasmodium berghei infected mice (Mus musculus) at 160 mg/kg; toxic in 3 of 5; type: functional, organism-based; parameters: dose 160 mg/kg
# Plasmodium berghei [21] = test: Antimalarial activity against Plasmodium berghei infected mice (Mus musculus) at 20 mg/kg; toxic in 1 of 5; type: functional, organism-based; parameters: dose 20 mg/kg
# Plasmodium berghei [22] = test: Antimalarial activity against Plasmodium berghei infected mice (Mus musculus) at 40 mg/kg; toxic in 5 of 5; type: functional, organism-based; parameters: dose 40 mg/kg
# Plasmodium berghei [23] = test: Increased MST in drug-sensitive Plasmodium berghei infected mice (Mus musculus) at 10 mg/kg; […]; type: functional, organism-based; parameters: dose 10 mg/kg
# Plasmodium berghei [24] = test: Increased mean survival time in drug-sensitive Plasmodium berghei infected mice (Mus musculus) at 160 mg/kg; cured 2 of 5; type: functional, organism-based; parameters: dose 160 mg/kg
# Plasmodium berghei [25] = test: Increased mean survival time in drug-sensitive Plasmodium berghei infected mice (Mus musculus) at 320 mg/kg; cured 4 of 5
# Plasmodium berghei [26] = test: Increased mean survival time in drug-sensitive Plasmodium berghei infected mice (Mus musculus) at 640 mg/kg; cured 5 of 5; type: functional, organism-based; parameters: dose 640 mg/kg
# Plasmodium berghei [27] = test: Increased mean survival time in drug-sensitive Plasmodium berghei infected mice (Mus musculus) at 320 mg/kg; cured 5 of 5; type: functional, organism-based; parameters: dose 320 mg/kg
# Plasmodium berghei [28] = test: Increased mean survival time in drug-sensitive Plasmodium berghei infected mice (Mus musculus) at 160 mg/kg; cured 3 of 5; type: functional, organism-based; parameters: dose 160 mg/kg
# Plasmodium berghei [29] = test: Increased mean survival time in drug-sensitive Plasmodium berghei infected mice (Mus musculus) at 80 mg/kg; cured 1 of 5; type: functional, organism-based; parameters: dose 80 mg/kg
# Plasmodium berghei [30] = test: Increased mean survival time in drug-sensitive Plasmodium berghei infected mice (Mus musculus) at 640 mg/kg; toxic in 2 of 5; type: functional
# Plasmodium berghei [31] = test: Increased mean survival time in drug-sensitive Plasmodium berghei infected mice (Mus musculus) at 40 mg/kg; cured 3 of 5; type: functional, organism-based; parameters: dose 40 mg/kg
# Plasmodium berghei [32] = test: Increased mean survival time in drug-sensitive Plasmodium berghei infected mice (Mus musculus) at 320 mg/kg; cured 3 of 5; type: functional, organism-based; parameters: dose 320 mg/kg
# Plasmodium berghei [33] = test: Increased mean survival time in drug-sensitive Plasmodium berghei infected mice (Mus musculus) at 40 mg/kg; active; type: functional
# Plasmodium berghei [34] = test: Antimalarial activity against Plasmodium berghei in mice (Mus musculus) at 40 mg/kg; toxic in 3 of 5; type: functional, organism-based; parameters: dose 40 mg/kg
smiles,measurement,setting,value
CC(N/N=C(\S)N1CCC(c2ccccc2)CC1)c1ccccn1 (stereo unspecified),Survival time,Plasmodium berghei [1],Cured 4 of 5 mice
same,Survival time,Plasmodium berghei [2],Cured 1 of 5 mice
same,Survival time,Plasmodium berghei [3],Toxic in 5 of 5 mice
CC(N/N=C(\[SeH])N1CC2CCC(CC2)C1)c1ccccn1 (stereo unspecified),Survival time,Plasmodium berghei [4],5.5 days
same,Survival time,Plasmodium berghei [5],Cured 4 of 5 mice; toxic in 1 of 5 mice
same,Survival time,Plasmodium berghei [6],0.5 days
same,Survival time,Plasmodium berghei [7],-0.3 days
same,Survival time,Plasmodium berghei [8],Cured 2 of 5 mice
same,Survival time,Plasmodium berghei [9],-0.3 days
C/C(=N\N=C(/[SeH])N1CCCCCC1)c1ccccn1,Survival time,Plasmodium berghei [4],4.6 days
same,Survival time,Plasmodium berghei [10],Cured 2 of 5 mice
same,Survival time,Plasmodium berghei [6],1.7 days
same,Survival time,Plasmodium berghei [11],Cured 2 of 5 mice
same,Survival time,Plasmodium berghei [12],7.3 days
C/C(=N\NC(=S)N1CCCC1)c1ccccn1,Survival time,Plasmodium berghei [13],Toxic in 5 of 5 mice
same,Survival time,Plasmodium berghei [6],8.9 days
same,Survival time,Plasmodium berghei [14],Toxic in 5 of 5 mice
CC(N/N=C(\S)N(C)C)c1ccccn1 (stereo unspecified),Survival time,Plasmodium berghei [15],Toxic in 5 of 5 mice
same,Survival time,Plasmodium berghei [3],Toxic in 5 of 5 mice
same,Survival time,Plasmodium berghei [16],2 days
same,Survival time,Plasmodium berghei [17],3.2 days
CC(N/N=C(\S)N1CC2CCC(CC2)C1)c1ccccn1 (stereo unspecified),Survival time,Plasmodium berghei [18],7.9 days
same,Survival time,Plasmodium berghei [19],Cured 1 of 5 mice
same,Survival time,Plasmodium berghei [20],Toxic in 3 of 5 mice
same,Survival time,Plasmodium berghei [21],Cured 4 of 5 mice; toxic in 1 of 5 mice
same,Survival time,Plasmodium berghei [22],Toxic in 5 of 5 mice
same,Survival time,Plasmodium berghei [3],Toxic in 5 of 5 mice
same,Survival time,Plasmodium berghei [23],Cured 2 of 5 mice
C/C(=N\N=C(/S)N(C)C1CCCCC1)c1ccccn1,Survival time,Plasmodium berghei [4],9.6 days
same,Survival time,Plasmodium berghei [6],3.7 days
same,Survival time,Plasmodium berghei [7],12.1 days
same,Survival time,Plasmodium berghei [24],Cured 2 of 5 mice
same,Survival time,Plasmodium berghei [25],Cured 4 of 5 mice
C/C(=N\N=C(/S)N1CCC(c2ccccc2)CC1)c1ccccn1,Survival time,Plasmodium berghei [26],Cured 5 of 5 mice
same,Survival time,Plasmodium berghei [27],Cured 5 of 5 mice
same,Survival time,Plasmodium berghei [6],0.4 days
same,Survival time,Plasmodium berghei [28],Cured 3 of 5 mice
same,Survival time,Plasmodium berghei [29],Cured 1 of 5 mice
C/C(=N\N=C(/S)NCc1ccccc1)c1ccccn1,Survival time,Plasmodium berghei [30],10.6 days
same,Survival time,Plasmodium berghei [6],0.5 days
same,Survival time,Plasmodium berghei [12],3.7 days
C/C(=N\N=C(/S)N1CCC(C)CC1)c1ccccn1,Survival time,Plasmodium berghei [13],Toxic in 5 of 5 mice
same,Survival time,Plasmodium berghei [14],Toxic in 5 of 5 mice
same,Survival time,Plasmodium berghei [31],Cured 3 of 5 mice
CC(N/N=C(\[SeH])N1CCCCCC1)c1ccccn1 (stereo unspecified),Survival time,Plasmodium berghei [4],6.1 days
same,Survival time,Plasmodium berghei [32],Cured 3 of 5 mice; toxic in 2 of 5 mice
same,Survival time,Plasmodium berghei [6],5.9 days
same,Survival time,Plasmodium berghei [11],Cured 2 of 5 mice; toxic in 2 of 5 mice
same,Survival time,Plasmodium berghei [19],Cured 1 of 5 mice
same,Survival time,Plasmodium berghei [9],0.3 days
CCOC(=O)N1CCN(/C(S)=N/NC(C)c2ccccn2)CC1 (stereo unspecified),Survival time,Plasmodium berghei [33],7.2 days
same,Survival time,Plasmodium berghei [20],Toxic in 5 of 5 mice
same,Survival time,Plasmodium berghei [15],Toxic in 5 of 5 mice
same,Survival time,Plasmodium berghei [34],Toxic in 3 of 5 mice
same,Survival time,Plasmodium berghei [3],Toxic in 5 of 5 mice
same,Survival time,Plasmodium berghei [9],5.9 days
